Experimental data reported in US20240082238A1, “COMPOSITIONS AND METHODS FOR TREATING CANCER” (UNIVERSITY OF IOWA RESEARCH FOUNDATION, priority 2021, published 2024).

What was measured:
[1] = test system: caspase 9; assay: Caspase multiplex activity assay, caspase 9; format: cell-based, human; conditions: 24 h
Experimental: Apoptosis and caspase activity. The expression of caspase 3, 8, and 9 was measured using Multiplex Activity Assay Fluorometric Kit (Cat. No. ab219915, Abcam). Briefly, Hec50co cells were plated in 96-well plates at a density of 3000 per well in 100 μL of the complete medium and incubated for 24 hours. After incubation, the medium was removed, and different concentrations either in single or combination of treatments were added (PTX 5 and 10 nM; CIP2b 10, 25, and 50 μM). Cells with treatments were incubated for 24 or 72 hours. Then, the caspase kit reagents were added to the cells and incubated at room temperature for 60 minutes. Fluorescence intensity (at excitation/emission values of 535/620 nm, 490/525 nm, and 370/450 nm for caspase 3, 8, and 9, respectively) was then measured using a SpectraMax M5 microplate reader (Molecular Devices).

[2] = test system: LLC-PK1-WT cells; assay: Cytotoxicity assay (MTS), LLC-PK1-WT cells; format: cell-based, porcine; conditions: Sus scrofa; PTX alone, 72 h
Experimental: Cytotoxicity assay. Hec50co cells were seeded at 1500 cells per well in 96-well plates for 24 h in a complete medium. Later, the medium was removed and PTX, CIP2b, or CIP (all dissolved in DMSO and diluted in complete medium) were added to cells as either monotherapies or in combinations, and the plates were incubated for 72 hours. Then, the complete medium was removed and MTS reagent in the complete medium was added to wells, and the plates were incubated for 1-4 hours according to the manufacturer's protocol. Finally, the absorbance was recorded at 490 nm using a Spectra Max plus 384 Microplate Spectrophotometer (Molecular Devices, Sunnyvale, CA). Percentage cell viability was expressed as the average absorbance of the test group relative to that of the control group (untreated cells). The concentration that inhibits proliferation of 50% of cells compared to control (IC50) was calculated using GraphPad Prism (La Jolla, CA). Synergism was detected following the Chou-Talalay method (CI<1 indicates synergism) (Chou T C. Cancer research. 2010; 70(2):440-6, doi: 10.1158/0008-5472.CAN-09-1947) using CompuSyn software (Ver. 1.0).
P-gp efflux transporter. Overexpression of the MDR1 gene, reflected in the abundance of the P-gp efflux pump, is one of the major reasons for PTX chemoresistance in cancer. In this study, LLC-PK1-WT and LLC-PK1-MDR1 cell lines were used. […]

[3] = biological target: T1, human Topo I (Homo sapiens, UniProt P11387); assay: Topoisomerase I inhibition assay (plasmid-based); format: biochemical; conditions: drug final concentration 100 μM
T1 construct: purchased TopoGEN Inc. TG1015-1A
T1 sequence (P11387 1-765): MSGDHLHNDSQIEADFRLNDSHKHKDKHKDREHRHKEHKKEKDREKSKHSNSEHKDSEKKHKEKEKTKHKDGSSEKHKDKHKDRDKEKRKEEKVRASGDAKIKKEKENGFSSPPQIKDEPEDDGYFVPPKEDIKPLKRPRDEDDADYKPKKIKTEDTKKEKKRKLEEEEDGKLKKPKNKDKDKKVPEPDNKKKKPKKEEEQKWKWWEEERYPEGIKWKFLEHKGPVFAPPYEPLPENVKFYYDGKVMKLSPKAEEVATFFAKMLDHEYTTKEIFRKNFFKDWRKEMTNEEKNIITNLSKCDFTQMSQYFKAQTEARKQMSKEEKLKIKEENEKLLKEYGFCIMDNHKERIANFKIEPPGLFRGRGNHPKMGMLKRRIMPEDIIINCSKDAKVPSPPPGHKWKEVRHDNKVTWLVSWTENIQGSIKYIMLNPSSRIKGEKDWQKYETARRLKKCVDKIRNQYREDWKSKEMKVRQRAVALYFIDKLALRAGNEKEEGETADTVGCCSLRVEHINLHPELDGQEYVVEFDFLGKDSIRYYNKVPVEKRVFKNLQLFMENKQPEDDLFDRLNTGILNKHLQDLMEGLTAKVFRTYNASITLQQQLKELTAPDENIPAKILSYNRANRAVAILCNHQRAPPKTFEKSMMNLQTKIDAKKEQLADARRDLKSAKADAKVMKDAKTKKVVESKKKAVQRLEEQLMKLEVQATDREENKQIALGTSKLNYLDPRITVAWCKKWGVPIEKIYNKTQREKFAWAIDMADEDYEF
Experimental: Topoisomerase I inhibition assay. A plasmid-based Topo I assay (Cat. No. TG1015-1A, TopoGEN Inc., Buena Vista, CO) was performed according to the manufacturer's instructions. Briefly, 1 μL of the test compounds (PTX, CIP, CIP2b, or CAM) at a concentration of 2 mM, was mixed with 2 μL of the reaction buffer (10× tris-glycine-SDS), and deionized water was added to make 18 μL solution. This was followed by adding 1 μL of supercoiled DNA (SC DNA) and 1 μL of human Topo I (10 U/μL) (drug final concentration was 100 μM). Also, SC DNA±Topo I was used as a control (i.e., not containing drugs). In addition, relaxed DNA was added as another control in this assay. Samples were incubated on a heating block (Isotemp 125 D Digital Heat Block, ThermoFisher Scientific) set at 37° C. for 30 minutes. Then, the reaction was stopped by adding a 5× stop buffer. Samples were then loaded directly into the wells of a 1% agarose gel (Research Products International, Mount Prospect, IL). The gel was run at 150 V until the dye front had traveled approximately 5 cm (run time was approximately 2 hours). The gel was then stained with 1 μg/mL ethidium bromide in deionized water for 15 minutes, and this was followed by de-staining (washing) with deionized water for 30 min before imaging. The image was then taken using an Invitrogen iBright CL 1500 Imaging System (ThermoFisher Scientific). The intensity of the final bands in the gel was quantified using ImageJ, and the results are expressed as the percentage of Topo I inhibition.

[4] = test system: Hec50co tumors; assay: Antitumor efficacy study, peritumoral SC injection; format: in vivo, athymic Nu/Nu mice
Experimental: Antitumor efficacy study following subcutaneous injection (SC) at the tumor site (peritumoral). Female athymic Nu/Nu mice were subcutaneously challenged with Hec50co cells (1×10^6 cells/mouse). When mice had palpable tumors, they were randomly distributed into 3 groups: PBS group (n=3), PTX group (n=4), and PTX+CIP2b group (n=4). Then, treatments were administered subcutaneously near the tumor site (i.e., peritumorally) in five doses on days 26, 30, 33, 37, and 40 post-tumor challenge. Each dose consisted of 200 μL of either PBS, 5 mg/kg PTX (Paclitaxel concentrate diluted in DPBS), or 5 mg/kg PTX+5 mg/kg CIP2b (CIP2b in DPBS:Tween-80:ethanol 85:10:5; further dilution was made using DPBS). Body weights and tumor volumes (using Equation 2) were monitored twice a week for up to 2 weeks after the last dose (i.e., up to day 53 post-tumor challenge). On the last day of the study (day 53 post-tumor challenge), mice were euthanized, and tumors were collected and their weights were measured.

level of caspase 9 expression vs untreated ([1]; 10 nM PTX): significantly higher
Topo I inhibitory activity (gel) [3]: neither PTX nor CIP did inhibit Topo I
SMILES: CC(=O)O[C@H]1C(=O)[C@@]2(C)[C@H]([C@H](OC(=O)c3ccccc3)[C@]3(O)C[C@H](OC(=O)[C@H](O)[C@@H](NC(=O)c4ccccc4)c4ccccc4)C(C)=C1C3(C)C)[C@]1(OC(C)=O)CO[C@@H]1C[C@@H]2O [PTX, paclitaxel]
expression of caspase 9 vs untreated ([1]; 5 nM PTX): not statistically different from untreated cells
IC50 [2]: 21.3 nM
average weight of tumors ([4]; day 53, SC treatment): did not show a significant difference against either the untreated group or the combination group
average tumor volumes vs PBS ([4]; day 53, 5 mg/kg PTX SC, five doses): smaller than PBS control mice albeit not significantly
